Tested on: Delta strain of novel coronavirus
Format: in vivo, K18-hACE2 transgenic mice

N#C[C@@]1(c2ccc3c(N)ncnn23)O[C@H](COC(=O)C2CCCCC2)[C@@H](O)[C@H]1O [ATV014]
viral load in the lungs (antiviral effect) ([…], ATV014 100 mg/kg, Compound 1 150 mg/kg, once daily, intragastric, versus vehicle control): significant antiviral effects | anti-novel coronavirus effects in the mouse model (conclusion, ATV014 100 mg/kg, Compound 1 150 mg/kg): significant anti-novel coronavirus effects | reduction of viral load (mouse, in vivo): could reduce the viral load to varying degrees

— patent EP4623909A1, “PHARMACEUTICAL COMPOSITION FOR TREATING OR RELIEVING COVID-19 AND FORMULATION COMPRISING SAME” (priority 2022, dated 2024)
